Data published in patent US4427661A, “Fluorinated cyclic hexapeptide somatostatin analogs” (Merck & Co., Inc., priority 1982, dated 1984).

Experiments:
[1] = system: growth hormone release; test: Growth Hormone--in vitro: growth hormone release inhibition in cultured rat pituitary cells; type: cell-based; conditions: multiples or fractions of the effect of somatostatin (=1), 4 hours incubation
Protocol: Rat pituitaries were isolated according to the procedures of Vale and Grant "In vitro Pituitary Hormone Secretion Assay for Hypophysioprivic Substances" in Methods in Enzymology. Vol.XXXVII,eds. O'Malley, B. W. and Hardman, J. G. (Academic Press, Inc., New York) pp. 5-93 (1975).
After 4 days in culture, the cells were washed and incubated for 4 hours in Dulbecco modified Eagle's medium in the presence or absence of graded doses of each analog or somatostatin. The medium was then collected for subsequent growth hormone determination by a double antibody radioimmunoassay for rat growth hormone.

[2] = system: pentagastrin evoked gastric secretion; test: Inhibition of pentagastrin evoked gastric secretion in the chronic fistula dog; type: in vivo; conditions: Dose 0.8 μg/ml./min., infusion 0-60 min, relative to placebo trial
Protocol: Compounds were tested for their ability to inhibit pentagastrin evoked gastric secretion in the chronic fistula dog. Female beagle dogs with a chronic gastric fistula were given pentagastrin (2.5 μg./kg./hour, i.v. from -60 to 120 min.) and gastric outputs were collected via the fistula cannula. Samples were analyzed at 30 minute intervals for volume (ml.) and titratable acid (mEq/L) (Titration to pH 7 with 0.01 N NaOH); total acid output (mEq) was calculated as the production of output volume and acid concentration. Test compounds were infused at a constant rate from 0 to 60 minutes. Data have been expressed as percent change of total acid output relative to a placebo trial in the same animals.

[3] = system: insulin; test: Insulin inhibition in vivo: portal vein insulin in anesthetized rats; parameters: species or system rat; conditions: multiples or fractions of the effect of somatostatin (=1), via external jugular vein, portal vein blood after 5 minutes
Protocol: Analogs of somatostatin were compared to somatostatin in their ability to decrease the levels of portal vein glucagon and insulin in anesthetized rats. Male Sprague-Dawley rats (Charles River CD) weighing 160-200 g were anethetized with urethane (150 mg/100 g of body weight; Aldrich). Saline or peptides were administered via the external jugular vein. After 5 minutes, the portal vein was exposed, and blood was collected via syringe containing 3 mg of EDTA and placed in chilled tubes containing 100 μl of Trasylol (FBA Pharmaceuticals) for subsequent hormone analysis. Plasma levels of glucagon were determined by the method of Faloona and Unger, Methods of Hormone Radioimmunoassay, Jaffe and Behrman (Eds), Academic Press, New York, Vol. II, pp. 257-527 (1976), utilizing glucagon antisera 30K obtained from R. Unger (Dallas, Tx). Plasma levels of insulin were determined by a modification of the procedure of Herbert et al., J. Clin. Endocrinol. Metab., 25, 1375-1384 (1965).

SMILES: C[C@H](N)C(=O)NCC(=O)N[C@H]1CSSC[C@@H](C(=O)O)NC(=O)[C@H](CO)NC(=O)[C@H]([C@@H](C)O)NC(=O)[C@H](Cc2ccccc2)NC(=O)[C@H]([C@@H](C)O)NC(=O)[C@H](CCCCN)NC(=O)[C@H](Cc2c[nH]c3ccccc23)NC(=O)[C@H](Cc2ccccc2)NC(=O)[C@H](Cc2ccccc2)NC(=O)[C@H](CC(N)=O)NC(=O)[C@H](CCCCN)NC1=O [Somatostatin]
- Growth Hormone Release Inhibition In Vitro [1]: 1
- Gastric Secretion % Inhibition Acid Concentration 0-30 ([2]; interval 0-30 min): 16%
- Gastric Secretion % Inhibition Vol. 0-30 ([2]; interval 0-30 min): 85%
- Gastric Secretion % Inhibition Acid Concentration 30-60 ([2]; interval 30-60 min): 77%
- Gastric Secretion % Inhibition Vol. 30-60 ([2]; interval 30-60 min): 97%
- Gastric Secretion % Inhibition Acid Concentration 60-90 ([2]; interval 60-90 min): 61%
- Gastric Secretion % Inhibition Vol. 60-90 ([2]; interval 60-90 min): 81%
- Gastric Secretion % Inhibition Acid Concentration 90-120 ([2]; interval 90-120 min): 14%
- Gastric Secretion % Inhibition Vol. 90-120 ([2]; interval 90-120 min): 37%
- Insulin Inhibition In Vivo [3]: 1
